Results from patent publication US6387905B2, “Compounds useful for inhibition of farnesyl protein transferase” (Schering Corporation, priority 1996, dated 2002).
pIC50: −log10 of the molar value. Where two headings read alike, the source gives them in different places.

What was measured:
[1] = biological target: farnesyl protein transferase (FPT), K-ras (Homo sapiens, UniProt P49354+P49356); assay: FPT IC50 (K-ras), inhibition of farnesyl protein transferase, in vitro enzyme assay; format: biochemical
Description: (§1) FPT IC50 (inhibition of farnesyl protein transferase, in vitro enzyme assay) and COS Cell IC50 (Cell-Based Assay) were determined following the assay procedures described in WO 95/10516, published Apr. 20, 1995. GGPT IC50 (inhibition of geranylgeranyl protein transferase, in vitro enzyme assay), Cell Mat Assay, and anti-tumor activity (in vivo anti-tumor studies) could be determined by the assay procedures described in WO 95/10516. The disclosure of WO 95/10516 is incorporated herein by reference thereto.

[2] = biological target: farnesyl protein transferase (FPT), H-ras (Homo sapiens, UniProt P49354+P49356); assay: FPT IC50 (H-ras), inhibition of farnesyl protein transferase, in vitro enzyme assay; format: biochemical; settings: for IC50: Table 3, read-out: FPT IC50 (nM) (H-ras)
Description: as §1

COS Cell = COS Cell IC50 (Cell-Based Assay); settings: COS
Description: as §1

Human tumor cells = assay: Soft Agar Assay (anchorage-independent growth); format: cell-based
Description: Anchorage-independent growth is a characteristic of tumorgenic cell lines. Human tumor cells are suspended in growth medium containing 0.3% agarose and an indicated concentration of a farnesyl transferase inhibitor. The solution is overlayed onto growth medium solidified with 0.6% agarose containing the same concentration of farnesyl transferase inhibitor as the top layer. After the top layer is solidified, plates are incubated for 10-16 days at 37° C. under 5% CO2 to allow colony outgrowth. After incubation, the colonies are stained by overlaying the agar with a solution of MTT (3-[4,5-dimethyl-thiazol-2-yl]-2,5-diphenyltetrazolium bromide, Thiazolyl blue) (1 mg/mL in PBS). Colonies can be counted and the IC50's can be determined.

[3] = H-ras, read-out: FPT IC50 (H-ras)
[4] = Table 3, read-out: COS Cell IC50
[5] = Table 5, read-out: Cos Cell IC50
[6] = Homo sapiens, Table 5, read-out: Soft Agar IC50

Row | Structure (SMILES) | pIC50 [1] | pIC50 (Human tumor cells; [6]) | pIC50 ([2]; Table 4, read-out: FPT IC50) | pIC50 (COS Cell; [5]) | other results
1 | Cc1nccn1CC(=O)N1CCC(CC(=O)N2CCC([C@H]3c4ncc(Br)cc4CCc4cc(Cl)cc(Br)c43)CC2)CC1 [Example 10.0-B] | 7.80 | – | – | – | –
2 | N[C@@H](Cc1c[nH]cn1)C(=O)N1CCC(CC(=O)N2CCC([C@H]3c4ncc(Br)cc4CCc4cc(Cl)cc(Br)c43)CC2)CC1 [Example 11] | 7.31 | – | – | – | IC50 ([2]; H-ras): 15 nM
3 | O=C(CC1CCN(C(=O)Cn2cnc3cccnc32)CC1)N1CCC([C@H]2c3ncc(Br)cc3CCc3cc(Cl)cc(Br)c32)CC1 [Example 13.0-B] | 7.71 | – | – | – | –
4 | O=C(CCN1CCCCC1)N1CCC(CC(=O)N2CCC([C@H]3c4ncc(Br)cc4CCc4cc(Cl)cc(Br)c43)CC2)CC1 [Example 7.0-B] | 7.81 | – | – | – | –
5 | O=C(CC1CCN(C(=O)CN2CCS(=O)(=O)CC2)CC1)N1CCC([C@H]2c3ncc(Br)cc3CCc3cc(Cl)cc(Br)c32)CC1 [Example 6.0-B] | 7.84 | – | – | – | –
6 | O=C(CC1CCN(C(=O)Cn2cnc3ccccc32)CC1)N1CCC([C@H]2c3ncc(Br)cc3CCc3cc(Cl)cc(Br)c32)CC1 [Example 12.0-B] | 7.57 | – | – | – | –
7 | O=C(CC1CCN(C(=O)[C@@H]2CCCN2)CC1)N1CCC([C@H]2c3ncc(Br)cc3CCc3cc(Cl)cc(Br)c32)CC1 [Example 12] | 7.46 | 6.60 | – | – | IC50 ([2]; H-ras): 4.4 nM; pIC50 (COS Cell; [4]): 7.26
8 | O=C(CC1CCN(C(=O)Cn2cnc3ccccc32)CC1)N1CCC([C@H]2c3ncc(Br)cc3CCc3cc(Cl)cc(Br)c32)CC1 [Cmpd 12.0-B] | – | < 6.30 | 8.52 | 7.70 | –
9 | O=C(CC1CCN(C(=O)C2CC(O)CN2)CC1)N1CCC([C@H]2c3ncc(Br)cc3CCc3cc(Cl)cc(Br)c32)CC1 (stereo partly shown) [Cmpd 63.0-B] | – | 6.30 | 8.46 | 7.26 | –
10 | Cc1nccn1CC(=O)N1CCC(CC(=O)N2CCC([C@H]3c4ncc(Br)cc4CCc4cc(Cl)cc(Br)c43)CC2)CC1 [Cmpd 10.0-B] | – | < 6.52 | 8.60 | 7.70 | –
11 | O=C(C(=O)N1CCC(CC(=O)N2CCC([C@H]3c4ncc(Br)cc4CCc4cc(Cl)cc(Br)c43)CC2)CC1)c1cccs1 [Cmpd 81.0-B] | – | < 6.30 | 8.03 | 7.55 | –
12 | O=C(CC1CCN(C(=O)CN2CCS(=O)(=O)CC2)CC1)N1CCC([C@H]2c3ncc(Br)cc3CCc3cc(Cl)cc(Br)c32)CC1 [Cmpd 6.0-B] | – | 6.68 | 8.57 | 7.52 | –
13 | NC(=O)CC(O)CC(=O)N1CCC(CC(=O)N2CCC([C@H]3c4ncc(Br)cc4CCc4cc(Cl)cc(Br)c43)CC2)CC1 (stereo partly shown) [Cmpd 92.0-B] | – | 7.35 | 8.66 | 7.82 | –
14 | N[C@@H](Cc1ccccc1)C(=O)N1CCC(CC(=O)N2CCC([C@H]3c4ncc(Br)cc4CCc4cc(Cl)cc(Br)c43)CC2)CC1 [Example 10] | 7.15 | – | – | – | IC50 ([2]; H-ras): 8.3 nM; pIC50 (COS Cell; [4]): 6.52
15 | O=C(CO/N=C/c1ccccc1O)N1CCC(CC(=O)N2CCC([C@H]3c4ncc(Br)cc4CCc4cc(Cl)cc(Br)c43)CC2)CC1 [Cmpd 95.0-B] | – | < 6.30 | 8.08 | 7.96 | –
16 | O=C(CC1CCN(C(=O)CC2COCCO2)CC1)N1CCC([C@H]2c3ncc(Br)cc3CCc3cc(Cl)cc(Br)c32)CC1 (stereo partly shown) [Cmpd 114.2-B] | – | 7.12 | 8.41 | 8.00 | –
17 | O=C(O)CCCCCC(=O)N1CCC(CC(=O)N2CCC([C@H]3c4ncc(Br)cc4CCc4cc(Cl)cc(Br)c43)CC2)CC1 [Example 80] | – | – | 8.85 | – | pIC50 (COS Cell; read-out: Cos Cell IC50, Table 5): 7.60; pIC50 (Human tumor cells; Homo sapiens, read-out: Soft Agar IC50, Table 5): 6.60
18 | O=C(CC1CCN(C(=O)CN2CCCCC2)CC1)N1CCC([C@H]2c3ncc(Br)cc3CCc3cc(Cl)cc(Br)c32)CC1 [Cmpd 75.0-B] | – | 6.82 | 8.33 | 8.00 | –
19 | Cc1cn(CC(=O)N2CCC(CC(=O)N3CCC([C@H]4c5ncc(Br)cc5CCc5cc(Cl)cc(Br)c54)CC3)CC2)cn1 [Example 11.0-B] | 7.90 | – | – | – | –

More lines, main results first:

Row | pIC50 [1] | pIC50 (Human tumor cells; [6]) | pIC50 ([2]; Table 4, read-out: FPT IC50) | Structure (SMILES) | pIC50 (COS Cell; [5]) | other results
20 | 7.51 | 6.70 | – | C[C@@H](N)C(=O)N1CCC(CC(=O)N2CCC([C@H]3c4ncc(Br)cc4CCc4cc(Cl)cc(Br)c43)CC2)CC1 [Example 6] | 7.41 | pIC50 [2, 3]: 8.09; pIC50 (COS Cell; [4]): 7.41
21 | 7.52 | – | – | C[C@H](NC(=O)OC(C)(C)C)C(=O)N1CCC(CC(=O)N2CCC([C@H]3c4ncc(Br)cc4CCc4cc(Cl)cc(Br)c43)CC2)CC1 [Example 3] | – | IC50 ([2]; H-ras): 6.3 nM
22 | 7.62 | – | – | C[C@H](N)C(=O)N1CCC(CC(=O)N2CCC([C@H]3c4ncc(Br)cc4CCc4cc(Cl)cc(Br)c43)CC2)CC1 [Example 4] | 6.85 | pIC50 [2, 3]: 8.28; pIC50 (COS Cell; [4]): 6.85
23 | 7.66 | – | – | C[C@@H](NC(=O)OC(C)(C)C)C(=O)N1CCC(CC(=O)N2CCC([C@H]3c4ncc(Br)cc4CCc4cc(Cl)cc(Br)c43)CC2)CC1 [Example 5] | – | IC50 ([2]; H-ras): 8.4 nM
24 | 7.39 | – | – | CC(C)(C)OC(=O)N[C@@H](Cc1c[nH]cn1)C(=O)N1CCC(CC(=O)N2CCC([C@H]3c4ncc(Br)cc4CCc4cc(Cl)cc(Br)c43)CC2)CC1 [Example 8] | 6.90 | IC50 ([2]; H-ras): 7.4 nM; pIC50 (COS Cell; [4]): 6.90
25 | 7.36 | – | – | CC(C)(C)OC(=O)NCC(=O)N1CCC(CC(=O)N2CCC([C@H]3c4ncc(Br)cc4CCc4cc(Cl)cc(Br)c43)CC2)CC1 [Example 1] | – | IC50 ([2]; H-ras): 12.3 nM
26 | – | < 6.30 | 8.46 | NNC(=O)C(=O)N1CCC(CC(=O)N2CCC([C@H]3c4ncc(Br)cc4CCc4cc(Cl)cc(Br)c43)CC2)CC1 [Cmpd 32.0-B] | 7.55 | –
27 | – | 6.30 | 8.77 | O=C(O)CC(O)CC(=O)N1CCC(CC(=O)N2CCC([C@H]3c4ncc(Br)cc4CCc4cc(Cl)cc(Br)c43)CC2)CC1 (stereo partly shown) [Example 74.0-B] | 7.40 | –
28 | – | < 6.30 | – | COC(=O)C(=O)N1CCC(CC(=O)N2CCC([C@H]3c4ncc(Br)cc4CCc4cc(Cl)cc(Br)c43)CC2)CC1 [Example 104.0-B] | 7.40 | pIC50 [2, 3]: 8.34
29 | 7.39 | – | – | CC(C)=NOCC(=O)N1CCC(CC(=O)N2CCC([C@H]3c4ncc(Br)cc4CCc4cc(Cl)cc(Br)c43)CC2)CC1 [Example 9.0-B] | – | –
30 | – | 6.72 | 8.60 | NC(=O)CCC(=O)N1CCC(CC(=O)N2CCC([C@H]3c4ncc(Br)cc4CCc4cc(Cl)cc(Br)c43)CC2)CC1 [Cmpd 69.0-B] | 7.60 | –
31 | 7.46 | – | – | CC(C)(C)OC(=O)N1CCC[C@H]1C(=O)N1CCC(CC(=O)N2CCC([C@H]3c4ncc(Br)cc4CCc4cc(Cl)cc(Br)c43)CC2)CC1 [Example 9] | – | IC50 ([2]; H-ras): 11.6 nM; pIC50 (COS Cell; [4]): 6.15
32 | – | 6.30 | 8.40 | O=C(O)NC(=O)C(=O)N1CCC(CC(=O)N2CCC([C@H]3c4ncc(Br)cc4CCc4cc(Cl)cc(Br)c43)CC2)CC1 [Cmpd 59.0-B] | 7.30 | –
33 | – | < 6.30 | 8.92 | O=C(O)C(=O)N1CCC(CC(=O)N2CCC([C@H]3c4ncc(Br)cc4CCc4cc(Cl)cc(Br)c43)CC2)CC1 [Cmpd 17.0-B] | < 6.00 | –
34 | 7.71 | 6.80 | – | CN(C)CC(=O)N1CCC(CC(=O)N2CCC(C3c4ncc(Br)cc4CCc4cc(Cl)cc(Br)c43)CC2)CC1 (single isomer, unassigned; (+)) [Example 21] | – | IC50 ([2]; H-ras): 2.5 nM; pIC50 (COS Cell; [4]): 8.00; pIC50 (Human tumor cells; Table 5, listed as 12.1, read-out: Soft Agar IC50): 7.05
